Entries after “also recorded” stand apart in the source; their conditions may differ. No end group written: not given here.
How the values were obtained:
hMRP4 = target: T1, hMRP4 (Homo sapiens, UniProt O15439); experiment: MST binding assay, hMRP4; settings: MST, three independent measurements
T1 sequence (O15439 1-1325): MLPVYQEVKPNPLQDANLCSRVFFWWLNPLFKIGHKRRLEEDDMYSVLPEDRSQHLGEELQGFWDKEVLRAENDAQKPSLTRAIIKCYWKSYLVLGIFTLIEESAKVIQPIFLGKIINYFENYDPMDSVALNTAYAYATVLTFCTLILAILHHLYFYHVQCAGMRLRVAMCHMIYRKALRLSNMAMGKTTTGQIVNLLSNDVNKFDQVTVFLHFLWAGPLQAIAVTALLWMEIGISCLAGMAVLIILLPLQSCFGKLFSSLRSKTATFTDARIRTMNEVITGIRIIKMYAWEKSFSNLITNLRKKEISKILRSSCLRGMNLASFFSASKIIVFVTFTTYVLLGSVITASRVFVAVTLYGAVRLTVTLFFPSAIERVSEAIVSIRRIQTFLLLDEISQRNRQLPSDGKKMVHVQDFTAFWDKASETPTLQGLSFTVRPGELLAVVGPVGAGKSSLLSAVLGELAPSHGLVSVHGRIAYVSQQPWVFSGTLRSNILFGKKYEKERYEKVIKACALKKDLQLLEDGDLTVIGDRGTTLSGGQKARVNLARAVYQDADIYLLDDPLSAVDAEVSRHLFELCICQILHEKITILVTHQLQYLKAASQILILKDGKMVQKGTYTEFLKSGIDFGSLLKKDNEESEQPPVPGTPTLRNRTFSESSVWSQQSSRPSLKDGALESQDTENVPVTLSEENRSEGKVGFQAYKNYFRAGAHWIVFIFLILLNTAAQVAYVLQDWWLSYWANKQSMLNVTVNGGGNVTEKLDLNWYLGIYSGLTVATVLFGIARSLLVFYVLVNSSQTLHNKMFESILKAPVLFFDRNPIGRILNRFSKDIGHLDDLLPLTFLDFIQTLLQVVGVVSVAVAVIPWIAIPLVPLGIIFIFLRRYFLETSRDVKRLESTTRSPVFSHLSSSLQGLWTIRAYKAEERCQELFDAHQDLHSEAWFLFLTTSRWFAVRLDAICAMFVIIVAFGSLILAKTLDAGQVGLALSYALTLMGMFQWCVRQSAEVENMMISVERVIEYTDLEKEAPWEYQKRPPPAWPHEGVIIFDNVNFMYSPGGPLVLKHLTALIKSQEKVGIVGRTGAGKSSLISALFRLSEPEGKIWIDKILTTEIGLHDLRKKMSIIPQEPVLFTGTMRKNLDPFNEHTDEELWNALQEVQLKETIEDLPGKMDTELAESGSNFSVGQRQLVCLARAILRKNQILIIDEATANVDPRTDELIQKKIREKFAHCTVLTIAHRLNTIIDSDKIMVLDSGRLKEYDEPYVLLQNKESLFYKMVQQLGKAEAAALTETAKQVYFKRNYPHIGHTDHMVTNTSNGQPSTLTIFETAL

hMRP5-Δ1-94 = target: T2, hMRP5-Δ1-94 (Homo sapiens, UniProt O15440); experiment: MST binding assay, hMRP5-Δ1-94; settings: MST, digitonin-purified hMRP5-Δ1-94, 15 min at room temperature
T2 construct: The codon-optimized full-length human ABCC5 gene encoding the MRP5 protein (UniProt ID: O15440); 8xHis (C); 2xstrep (C); made in house; host or cells: HEK293F
Experimental: We monitored the binding of different peptides to digitonin-purified hMRP5-Δ1-94-8xHis by MST assay (Monolith NT). HEPES buffer was used to replace Tris buffer during protein purification in the MST assay. The purified protein was mixed with RED-tris-NTA 2nd Generation dye (NanoTemper, MO-L018). Next, serially diluted peptides were mixed with the labeled protein. The mixtures were incubated for 15 min at room temperature, then the capillaries were loaded and the samples were assessed at 3% LED/excitation power and medium MST power. All peptides used in this study were synthesized in GL Biochem (Shanghai). The peptide sequence is provided as Source Data 5. The MST data were analyzed with MO.Affinity Analysis software.

T2 sequence (O15440 95-1437 limits assumed, stated change not applied): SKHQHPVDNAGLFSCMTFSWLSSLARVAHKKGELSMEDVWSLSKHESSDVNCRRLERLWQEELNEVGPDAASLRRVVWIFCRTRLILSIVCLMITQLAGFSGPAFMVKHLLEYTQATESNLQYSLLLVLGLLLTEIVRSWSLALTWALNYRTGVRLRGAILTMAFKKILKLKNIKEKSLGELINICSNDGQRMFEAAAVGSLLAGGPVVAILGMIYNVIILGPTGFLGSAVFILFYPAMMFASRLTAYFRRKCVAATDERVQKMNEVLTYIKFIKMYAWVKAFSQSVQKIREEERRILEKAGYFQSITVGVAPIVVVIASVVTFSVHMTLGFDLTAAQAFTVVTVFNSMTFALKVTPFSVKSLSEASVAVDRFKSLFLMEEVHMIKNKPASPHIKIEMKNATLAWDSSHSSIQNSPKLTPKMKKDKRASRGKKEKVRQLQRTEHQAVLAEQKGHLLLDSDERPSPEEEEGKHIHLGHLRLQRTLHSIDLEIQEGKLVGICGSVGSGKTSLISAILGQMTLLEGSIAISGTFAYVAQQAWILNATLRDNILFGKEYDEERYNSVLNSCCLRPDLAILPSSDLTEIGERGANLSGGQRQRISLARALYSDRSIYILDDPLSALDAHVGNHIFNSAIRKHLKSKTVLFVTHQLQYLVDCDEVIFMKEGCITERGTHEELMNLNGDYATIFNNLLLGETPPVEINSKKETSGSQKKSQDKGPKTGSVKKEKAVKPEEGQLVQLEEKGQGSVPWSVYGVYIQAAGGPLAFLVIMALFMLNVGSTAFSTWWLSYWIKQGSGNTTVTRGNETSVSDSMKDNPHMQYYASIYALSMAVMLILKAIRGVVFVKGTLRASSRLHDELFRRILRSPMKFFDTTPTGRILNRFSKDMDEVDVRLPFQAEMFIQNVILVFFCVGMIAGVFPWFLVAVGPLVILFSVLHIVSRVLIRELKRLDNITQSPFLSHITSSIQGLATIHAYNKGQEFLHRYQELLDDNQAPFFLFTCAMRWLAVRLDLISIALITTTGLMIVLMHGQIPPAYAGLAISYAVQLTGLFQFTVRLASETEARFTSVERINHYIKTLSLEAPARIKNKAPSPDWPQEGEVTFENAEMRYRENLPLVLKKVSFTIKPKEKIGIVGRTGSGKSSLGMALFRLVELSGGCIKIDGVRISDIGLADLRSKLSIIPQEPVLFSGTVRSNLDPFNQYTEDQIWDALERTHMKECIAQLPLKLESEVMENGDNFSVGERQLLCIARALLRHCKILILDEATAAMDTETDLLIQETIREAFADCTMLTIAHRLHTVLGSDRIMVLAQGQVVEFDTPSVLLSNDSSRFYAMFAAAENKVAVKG

CSKFRRTRPLECQDALETAARAEGLSLDASMHSQLRILDEC (cysteines drawn unpaired) [M5PI]
binding affinity to hMRP4, in words (hMRP4): not detectable; also recorded: could not be estimated through MST test; also recorded: rarely | binding affinity to hMRP5, in words (hMRP5-Δ1-94): stronger hMRP5 affinity than selected anticancer drugs | binding affinity to hMRP5, in words (hMRP5-Δ1-94; listed as Cys35-Cys75 peptide): higher affinity for hMRP5 compared to the original Asp35-Glu75 peptide | binding affinity to hMRP5, in words (hMRP5-Δ1-94; listed as D35C-E75C): highest affinity for hMRP5 among these peptides; also recorded: higher binding affinity to hMRP5 than the well-studied substrate doxorubicin and inhibitor trequinsin

Source: publication PMC11156954, “Inhibition and transport mechanisms of the ABC transporter hMRP5” (Nature Communications, 2024)
